44 molecules from ChEMBL document CHEMBL4033675, “Identification of novel 1,2,3,6-tetrahydropyridyl-substituted benzo[d]thiazoles: Lead generation and optimization toward potent and orally active EP1 receptor antagonists” (Bioorg Med Chem, 2017) can be followed below.

What is called AUC(0-inf) is total exposure, with the tail of the curve extrapolated. In general, clearance refers to a measure of how efficiently the substance is removed, as volume per time. What is called half-life is the time in which the quantity being followed falls by half. As a reminder, the Vd is the apparent volume that relates the amount in the body to the concentration in plasma or blood. A word on the IC50: it is the concentration at which inhibition is half-maximal.

The source made the active and inactive calls. The rule behind the calls is not given here.

Test system in the first series: not listed separately
Briefly: AUC (0 to infinity) in rat at 1 mg/kg, iv. The class given is ADME, organism-based. Also on record: dose 1 mg/kg, time infinity, route intravenous. The note with it: in vivo.
For the molecule `Cc1cc(C(=O)O)nn1Cc1cc(Cl)cc2sc(N3CC=CCC3)nc12`, the AUC(0-inf) worked out at 4480 ng·h/mL.

For a further series, the system named is Rattus norvegicus. Briefly: Inhibition of 17-PTP-induced increase in intravesical pressure in intraduodenally dosed rat overactive bladder model pretreated for 5 mins followed by 17-PTP treatment with 30 mins time interval for 245 mins. The class given is functional, organism-based.
Settings: not given
With `Cc1cc(C(=O)O)nn1Cc1cc(Cl)cc2sc(N3CC=CCC3)nc12`, the inhibition result is “Dose-dependent effect”.

For the molecule `Cc1cc(C(=O)O)nn1Cc1cc(Cl)cc2sc(-c3ccccc3)nc12`, the inhibition entry is “inactive”.

Test system in a further series: not listed separately
The experiment in a line: Total clearance in rat at 1 mg/kg, iv. Format: ADME, organism-based. The note with it: in vivo.
In the case of `Cc1cc(C(=O)O)nn1Cc1cc(Cl)cc2sc(N3CC=CCC3)nc12`, the clearance came out at 3.79 mL/min/kg.

Test system in the next series: not listed separately
Briefly: Half life in rat at 1 mg/kg, iv. Format: ADME, organism-based. Particulars: in vivo.
`Cc1cc(C(=O)O)nn1Cc1cc(Cl)cc2sc(N3CC=CCC3)nc12` gave a half-life of 40.7 min.

Test system in the next series: not listed separately
The experiment in a line: Initial concentration in rat at 1 mg/kg, iv. The class given is ADME, organism-based. The note with it: in vivo.
As for `Cc1cc(C(=O)O)nn1Cc1cc(Cl)cc2sc(N3CC=CCC3)nc12`, the C0 was 6000 ng/mL.

Test system in another series: not listed separately
The experiment in a line: Chemical stability of the compound in pH 1 acidic aqueous medium. The class given is physicochemical. Particulars: buffer.
For `Cc1cc(C(=O)O)nn1Cc1cc(Cl)cc2sc(N3CC=CCC3)nc12`, the Stability result is recorded as “Stable”.

Test system in another series: not listed separately
The experiment in a line: Volume of distribution in rat at 1 mg/kg, iv. The class given is ADME, organism-based. Particulars: in vivo.
`Cc1cc(C(=O)O)nn1Cc1cc(Cl)cc2sc(N3CC=CCC3)nc12`: the Vd came out at 0.184 L/kg.

Another series deals with T1, Prostaglandin E2 receptor EP1 subtype (Rattus norvegicus, UniProt P70597).
T1 sequence (P70597 whole entry): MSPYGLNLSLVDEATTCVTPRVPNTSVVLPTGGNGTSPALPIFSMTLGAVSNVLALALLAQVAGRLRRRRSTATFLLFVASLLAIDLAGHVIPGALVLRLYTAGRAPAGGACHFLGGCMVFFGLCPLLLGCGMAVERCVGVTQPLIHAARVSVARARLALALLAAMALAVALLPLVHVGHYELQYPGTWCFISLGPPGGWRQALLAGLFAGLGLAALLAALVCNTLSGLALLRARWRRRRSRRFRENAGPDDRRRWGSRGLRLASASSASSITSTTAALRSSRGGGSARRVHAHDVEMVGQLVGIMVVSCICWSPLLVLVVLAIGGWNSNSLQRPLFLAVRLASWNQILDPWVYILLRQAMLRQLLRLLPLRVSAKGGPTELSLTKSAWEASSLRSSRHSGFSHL
Briefly: Antagonist activity at rat EP1 receptor expressed in African green monkey COS1 cells assessed as inhibition of prostaglandin-E2-induced increase in intracellular calcium level preincubated for 60 secs followed by prostaglandin-E2 addition measured for 60 secs by Fluo 4-AM dye based fluorescence assay. Format: functional, cell-based.
Settings: not given
For orientation: Calcium assays in cells follow changes in intracellular calcium, usually with a dye or a luminescent sensor.
Take `Cc1cc(C(=O)O)nn1Cc1cc(Cl)cc2sc(N3CCCCCC3)nc12`: the IC50 amounted to 270 nM.

Consider `Cc1cc(C(=O)O)nn1Cc1cc(F)cc2sc(N3CC=CCC3)nc12`, for which the IC50 was found to be 17 nM.

With `COc1cc(Cn2nc(C(=O)O)cc2C)c2nc(N3CC=CCC3)sc2c1`, the IC50 worked out at 37 nM.

Take `CC(=O)c1cc(Cn2nc(C(=O)O)cc2C)c2nc(N3CC=CCC3)sc2c1`: the IC50 is 200 nM.

Regarding `Cc1cc(C(=O)O)nn1Cc1cc(Cl)cc2sc(C3CCCCC3)nc12`, the IC50 was 430 nM.

As to `O=C(O)c1ccc(Sc2cc(Cl)cc3sc(N4CC=CCC4)nc23)o1`, the IC50 amounted to 6.4 nM.

For the molecule `CCN(C)c1nc2c(Cn3nc(C(=O)O)cc3C)cc(Cl)cc2s1`, the IC50 is 13 nM.

Turning to `Cc1cc(C(=O)O)nn1Cc1cc(Cl)cc2sc(N3CCC3)nc12`, the IC50 was 320 nM.

Regarding `Cc1cc(C(=O)O)nn1Cc1cc(Cl)cc2sc(N3CCS(=O)(=O)CC3)nc12`, the IC50 turned out to be 4200 nM.

Take `Cc1cc(C(=O)O)nn1Cc1cc(Cl)cc2sc(N3CCN(C)CC3)nc12`: the IC50 was 4900 nM.

For the molecule `Cc1cc(C(=O)O)nn1Cc1cc(C#N)cc2sc(N3CC=CCC3)nc12`, the IC50 was determined as 230 nM.

For the molecule `C=C(C)c1cc(Cn2nc(C(=O)O)cc2C)c2nc(N3CC=CCC3)sc2c1`, the IC50 came out at 160 nM.

On to `O=C(O)c1ccc(Cc2cc(Cl)cc3sc(N4CC=CCC4)nc23)o1`, for which the IC50 turned out to be 60 nM.

With `CC1=CCCN(c2nc3c(Cn4nc(C(=O)O)cc4C)cc(Cl)cc3s2)C1`, the IC50 stood at 30 nM.

In the case of `Cc1cc(C(=O)O)nn1Cc1cc(Cl)cc2nc(-c3ccccc3)sc12`, the IC50 was determined as 7950 nM.

Take `Cc1cc(C(=O)O)nn1Cc1cc(Cl)cc2sc(N(C)C)nc12`: the IC50 was determined as 100 nM.

With `Cc1cc(C(=O)O)nn1Cc1cc(Cl)cc2oc(-c3ccccc3)nc12`, the half-maximal inhibitory concentration (IC50) turned out to be 8700 nM.

For `Cc1cc(C(=O)O)nn1Cc1cc(Cl)cc2sc(N3CCSCC3)nc12`, the IC50 came to 66 nM.

On to `Cc1cc(C(=O)O)nn1Cc1cc(Cl)cc2sc(N3CCOCC3)nc12`, for which the IC50 turned out to be 63 nM.

Turning to `CCN(CC)c1nc2c(Cn3nc(C(=O)O)cc3C)cc(Cl)cc2s1`, the half-maximal inhibitory concentration (IC50) came to 6.2 nM.

For the molecule `CNc1cc(Cn2nc(C(=O)O)cc2C)c2nc(N3CC=CCC3)sc2c1`, the IC50 is 8800 nM.

As to `Cc1cc(C(=O)O)nn1Cc1cc(Cl)cc2sc(N3CC=CCC3)nc12`, the IC50 was found to be 1.1 nM.

Turning to `C=C(C)c1nc2c(Cn3nc(C(=O)O)cc3C)cc(Cl)cc2s1`, the IC50 was 33 nM.

As to `Cc1cc(C(=O)O)nn1Cc1cc(Cl)cc2sc(N3CCCCC3)nc12`, the IC50 came out at 43 nM.

As to `Cc1cc(C(=O)O)nn1Cc1cc(N)cc2sc(N3CC=CCC3)nc12`, the IC50 came to 7800 nM.

`Cc1cc(C(=O)O)nn1Cc1cc(Cl)cc2sc(-c3ccccc3)nc12`: the IC50 came out at 31 nM.

In the case of `Cc1cc(C(=O)O)nn1Cc1cc(OC(F)(F)F)cc2sc(N3CC=CCC3)nc12`, the IC50 is 97 nM.

For `CNc1nc2c(Cn3nc(C(=O)O)cc3C)cc(Cl)cc2s1`, the IC50 came out at 470 nM.

Turning to `CC1=CCN(c2nc3c(Cn4nc(C(=O)O)cc4C)cc(Cl)cc3s2)CC1`, the IC50 was 64 nM.

As to `C=Cc1cc(Cn2nc(C(=O)O)cc2C)c2nc(N3CC=CCC3)sc2c1`, the IC50 came out at 9.9 nM.

Take `Cc1cc(C(=O)O)nn1Cc1cccc2sc(N3CC=CCC3)nc12`: the IC50 was 32 nM.

On to `CCCN(CC)c1nc2c(Cn3nc(C(=O)O)cc3C)cc(Cl)cc2s1`, for which the IC50 was found to be 270 nM.

Turning to `Cc1cc(C(=O)O)nn1Cc1cc(N(C)C)cc2sc(N3CC=CCC3)nc12`, the IC50 was found to be 210 nM.

Turning to `Cc1cc(C(=O)O)nn1Cc1cc(Cl)cc2sc(C3=CCCCC3)nc12`, the IC50 worked out at 110 nM.

`Cc1cc(C(=O)O)nn1Cc1cc(C(=O)O)cc2sc(N3CC=CCC3)nc12`: the IC50 is 7900 nM.

As for `Cc1cc(C(=O)O)nn1Cc1cc(Cl)cc2sc(N3CCCC3)nc12`, the IC50 worked out at 30 nM.

As for `Cc1cc(C(=O)O)nn1Cc1cc(Cl)cc2nc(-c3ccccc3)oc12`, the IC50 came out at 750 nM.

On to `Cc1cc(C(=O)O)nn1Cc1cc(Br)cc2sc(N3CC=CCC3)nc12`, for which the IC50 is 22 nM.

`Cc1cc(Cn2nc(C(=O)O)cc2C)c2nc(N3CC=CCC3)sc2c1`: the IC50 was 2500 nM.

For the molecule `O=C(O)c1ccc(Oc2cc(Cl)cc3sc(N4CC=CCC4)nc23)o1`, the IC50 came out at 150 nM.

Take `O=C(O)c1ccn(Cc2cc(Cl)cc3sc(N4CC=CCC4)nc23)c1`: the IC50 was 240 nM.

In the case of `CC1=C(C)CN(c2nc3c(Cn4nc(C(=O)O)cc4C)cc(Cl)cc3s2)CC1`, the IC50 is 5200 nM.

Turning to `Cc1cc(C(=O)O)nn1Cc1cc(Cl)cc2sc(N3CC=CC3)nc12`, the IC50 was determined as 110 nM.

Take `O=C(O)c1ccn(Cc2cc(Cl)cc3sc(N4CC=CCC4)nc23)n1`: the IC50 came out at 51 nM.
